Assay results as given in patent US11028083B2, “Ethanediamine-heterocycle derivatives as inhibitors of protein arginine methyltransferases” (Board of Regents, The University of Texas System, priority 2018, dated 2021).

Key:
[1] = target: Full-length human GST-PRMT4 (Homo sapiens (Human), UniProt Q86X55); assay: PRMT4 RapidFire Mass Spectrometry Selectivity Assay (SAH production); format: biochemical; conditions: Rapid fire enzyme assay; 0.5 μM SAM, 15 nM Histone H3.3; read-out: PRMT-4 IC50
Text: Full-length human GST-PRMT4 (SignalChem, catalog#P365-380DG) was expressed by baculovirus in Sf9 insect cells.

PRMT1 = PRMT1 (Homo sapiens (Human), UniProt Q99873); assay: PRMT1 Enzymatic Assay (LANCE TR-FRET, methylation of histone H4 at Arg3); format: biochemical; conditions: PRMT-1 Enzymatic Assay; 1 μM SAM, 25 nM biotinylated histone H4 (1-21)
PRMT1, sequence (Q99873 whole entry): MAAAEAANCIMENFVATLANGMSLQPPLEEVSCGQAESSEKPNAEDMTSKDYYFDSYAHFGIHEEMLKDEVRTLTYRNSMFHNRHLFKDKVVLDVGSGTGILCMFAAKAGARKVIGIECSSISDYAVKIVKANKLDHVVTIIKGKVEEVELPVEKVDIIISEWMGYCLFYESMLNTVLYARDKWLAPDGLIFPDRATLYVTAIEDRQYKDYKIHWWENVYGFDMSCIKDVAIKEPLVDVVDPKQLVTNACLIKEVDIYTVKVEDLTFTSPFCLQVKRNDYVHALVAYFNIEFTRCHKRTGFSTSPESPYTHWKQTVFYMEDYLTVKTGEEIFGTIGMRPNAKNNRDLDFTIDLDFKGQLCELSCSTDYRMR
Method: In order to measure PRMT1 enzymatic activity the LANCE TR-FRET assay from PerkinElmer was used to follow the methylation of histone H4 at Arg3 using S-adenosyl-L-methionine (SAM) as the methyl group donor.
Final concentrations of PRMT1, SAM, and histone H4 (1-21) refer to a 10 μL volume.
Detection of methylated histone H4 (H4R3me) was achieved by combining LANCE Ultra Europium-anti-H4R3me antibody (PerkinElmer, Catalog #TRF04-14), LANCE Ultra ULight-anti-streptavidin antibody (PerkinElmer, Catalog #TRF0102), and sinefungin (Sigma, Catalog #S8559) (final concentrations 2 nM, 50 nM, and 100 μM respectively) in 1×LANCE detection buffer (PerkinElmer, Catalog #CR97-100) and adding 10 μL/well of the detection solution to the assay plate. Detection reagents were allowed to react for 1 hour at room temperature. Final concentrations in the detection solution refer to a 20 μL volume.

PRMT1 in RKO cells = PRMT1 in RKO cells (Homo sapiens (Human), UniProt Q99873); assay: PRMT1 RKO Cellular Target Engagement Assay (In-Cell Western, asymmetric di-methyl arginine); format: cell-based; conditions: PRMT-1 Target Engagement, 48 hr compound incubation
PRMT1 in RKO cells, sequence (Q99873 whole entry): as above
Method: In preparation for the In-Cell Western assay, cells were harvested and resuspended in EMEM media supplemented with 10% fetal bovine serum. […] The culture plate was incubated for 24 hr at 37° C. with 5% CO2 and ambient O2. […] The primary antibody was then removed, and the plate was washed three times with 1×PBST. […] The plate was then incubated in the dark, at room temperature for 1 hour followed by three washes with 1×PBST and one wash with H2O. The IRDye secondary antibody signal (800 channel) and the CellTag signal (700 channel) were measured using a Licor Odyssey Imager, and the 800 channel signal was then normalized to the 700 channel signal. IC50 values were calculated using a four-parameter logistic curve fit using Genedata Screener software.

[2] = target: Full-length human PRMT1 (1-361) (Homo sapiens, UniProt Q99873); assay: PRMT1 RapidFire Mass Spectrometry Selectivity Assay (SAH production); format: biochemical; conditions: Rapid fire enzyme assay; 1 μM SAM, 50 nM histone H4 (1-21); read-out: PRMT-1 IC50
[3] = target: Full-length human PRMT6 (1-375) (Homo sapiens (Human), UniProt Q96LA8); assay: PRMT6 RapidFire Mass Spectrometry Selectivity Assay (SAH production); conditions: read-out: PRMT-6 IC50; Rapid fire enzyme assay; 3 μM SAM, 250 nM Histone H4 (36-50) K44 MeI
Full-length human PRMT6 (1-375), sequence (Q96LA8 whole entry): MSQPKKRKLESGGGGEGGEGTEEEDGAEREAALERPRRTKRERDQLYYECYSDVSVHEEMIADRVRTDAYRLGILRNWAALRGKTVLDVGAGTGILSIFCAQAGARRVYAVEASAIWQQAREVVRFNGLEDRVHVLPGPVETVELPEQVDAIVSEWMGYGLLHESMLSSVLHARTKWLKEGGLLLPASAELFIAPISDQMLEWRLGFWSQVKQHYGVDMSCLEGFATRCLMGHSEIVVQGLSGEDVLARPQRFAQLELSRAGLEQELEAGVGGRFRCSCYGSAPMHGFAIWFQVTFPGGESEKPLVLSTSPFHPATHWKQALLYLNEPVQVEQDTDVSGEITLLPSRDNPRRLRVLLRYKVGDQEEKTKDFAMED
Method: The PRMT6 assay was performed by dispensing 6 uL/well (final concentration of 10 nM) of PRMT6 protein diluted in assay buffer to the plate. Stock solutions of the test compounds were prepared in 100% DMSO (Sigma, Catalog #D2650) and serially diluted 1:3 using 100% DMSO. Compounds were additionally diluted 1:50 in assay buffer, and 6 μL/well were transferred to the assay plate. Plates were allowed to incubate for 15 min at room temperature.
RapidFire buffer A contained H2O and buffer B was 80% acetonitrile/H2O. […] SAH peaks were integrated using RapidFire peak software and IC50 values were calculated using a four-parameter logistic curve fit using Genedata Screener software.

Full-length human GST-PRMT4, sequence (Q86X55 whole entry): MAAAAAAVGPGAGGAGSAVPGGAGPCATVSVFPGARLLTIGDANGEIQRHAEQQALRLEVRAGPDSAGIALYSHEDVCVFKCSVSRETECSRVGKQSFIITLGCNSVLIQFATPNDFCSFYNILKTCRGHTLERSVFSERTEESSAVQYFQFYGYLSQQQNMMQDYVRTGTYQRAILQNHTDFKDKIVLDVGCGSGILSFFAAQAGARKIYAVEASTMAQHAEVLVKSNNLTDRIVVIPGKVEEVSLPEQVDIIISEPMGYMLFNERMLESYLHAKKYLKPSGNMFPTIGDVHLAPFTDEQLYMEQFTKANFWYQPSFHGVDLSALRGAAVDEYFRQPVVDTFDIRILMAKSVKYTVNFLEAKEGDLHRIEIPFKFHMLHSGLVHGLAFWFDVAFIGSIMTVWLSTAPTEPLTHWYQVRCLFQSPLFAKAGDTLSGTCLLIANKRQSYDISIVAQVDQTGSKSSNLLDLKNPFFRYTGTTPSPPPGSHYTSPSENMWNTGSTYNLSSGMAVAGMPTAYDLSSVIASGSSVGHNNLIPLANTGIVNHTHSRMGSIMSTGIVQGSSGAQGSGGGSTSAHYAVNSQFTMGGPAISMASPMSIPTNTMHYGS

| Compound | IC50 [1] [nM] | IC50 (PRMT1) [nM] | also measured |
| --- | --- | --- | --- |
| CNCCN(C)Cc1nn2c(c1C1CCCCC1)CCCC2 [Example 21, N^1-((3-cyclohexyl-4,5,6,7-tetrahydropyrazolo[1,5-a]pyridin-2-yl)methyl)-N^1,N^2-dimethylethane-1,2-diamine] | 1120 |  |  |
| CCOCC1(COCC)CCC(c2c(CNCCN)nn3c2CC(F)(F)C3)CC1 [Example 92, N^1-((3-(4,4-bis(ethoxymethyl)cyclohexyl)-5,5-difluoro-5,6-dihydro-4H-pyrrolo[1,2-b]pyrazol-2-yl)methyl)ethane-1,2-diamine] |  | 73 |  |
| CNCCN(C)Cc1nn2c(c1C1CCCCC1)CCC2 [Example 11, N^1-((3-cyclohexyl-5,6-dihydro-4H-pyrrolo[1,2-b]pyrazol-2-yl)methyl)-N^1,N^2-dimethylethane-1,2-diamine] | 654 | 44 | IC50 (PRMT1 in RKO cells): 14000 nM; IC50 [2]: 93 nM; IC50 [3]: 99 nM |

Continued by falling IC50 [1], values first:

| IC50 [1] [nM] | IC50 (PRMT1) [nM] | Compound | also measured |
| --- | --- | --- | --- |
| 337 |  | CNCCN(C)Cc1nn2c(c1C1CCC(C)(C)CC1)CCC2 [Example 51, N^1-((3-(4,4-dimethylcyclohexyl)-5,6-dihydro-4H-pyrrolo[1,2-b]pyrazol-2-yl)methyl)-N^1,N^2-dimethylethane-1,2-diamine] |  |
| 114 |  | CNCCN(C)Cc1nn2c(c1C1CCC3(CCCC3)CC1)CCC2 [Example 49, N^1,N^2-dimethyl-N^1-((3-(spiro[4.5]decan-8-yl)-5,6-dihydro-4H-pyrrolo[1,2-b]pyrazol-2-yl)methyl)ethane-1,2-diamine] |  |
| 79 |  | CCOCC1(COCC)CCC(c2c(CN(C)CCNC)nn3c2CCC3)CC1 [Example 2, N^1-((3-(4,4-bis(ethoxymethyl)cyclohexyl)-5,6-dihydro-4H-pyrrolo[1,2-b]pyrazol-2-yl)methyl)-N^1, N^2-dimethylethane-1,2-diamine] |  |
